From patent US12497428B2, “Galactoside inhibitor of galectins” (GALECTO BIOTECH AB, priority 2018, dated 2025)
Values after ≈ are worked out from the molar mass of the structure shown.

Legend:
[1] = test system: galectins; settings: cited from earlier work
[2] = molecular target: Galectin-1 (Homo sapiens, UniProt P09382); experiment: Fluorescence anisotropy assay, inhibition of galectin / fluorescein tagged saccharide probe interaction; assay type: binding
Protocol: (§1) The affinity of Example 1-28 for galectins were determined by a fluorescence anisotropy assay where the compound was used as an inhibitor of the interaction between galectin and a fluorescein tagged saccharide probe as described Sörme, P., Kahl-Knutsson, B., Huflejt, M., Nilsson, U. J., and Leffler H. (2004) Fluorescence polarization as an analytical tool to evaluate galectin-ligand interactions. Anal. Biochem. 334: 36-47, (Sörme et al., 2004) and Monovalent interactions of Galectin-1 By Salomonsson, Emma; Larumbe, Amaia; Tejler, Johan; Tullberg, Erik; Rydberg, Hanna; Sundin, Anders; Khabut, Areej; Frejd, Torbjorn; Lobsanov, Yuri D.; Rini, James M.; et al, From Biochemistry (2010), 49(44), 9518-9532, (Salomonsson et al., 2010).

[3] = molecular target: Galectin-3 (Homo sapiens, UniProt P17931); experiment: as above; assay type: binding
Protocol: as §1

[4] = Aqueous solubility; assay type: physicochemical

Chain of Galectin-3 (P17931 whole entry): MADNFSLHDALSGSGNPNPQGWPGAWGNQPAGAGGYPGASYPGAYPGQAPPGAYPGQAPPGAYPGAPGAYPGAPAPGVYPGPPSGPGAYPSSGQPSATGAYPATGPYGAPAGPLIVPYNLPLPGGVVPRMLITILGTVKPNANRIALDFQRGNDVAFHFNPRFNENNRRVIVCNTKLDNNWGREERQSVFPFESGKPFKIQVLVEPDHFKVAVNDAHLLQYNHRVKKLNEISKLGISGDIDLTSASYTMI
Chain of Galectin-1 (P09382 whole entry): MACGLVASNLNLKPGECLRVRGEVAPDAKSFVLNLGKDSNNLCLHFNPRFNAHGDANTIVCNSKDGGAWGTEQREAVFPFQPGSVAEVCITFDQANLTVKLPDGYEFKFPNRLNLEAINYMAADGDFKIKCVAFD

In the case of `O=C[C@H](O)[C@@H](O)[C@@H](O)[C@H](O)CO` [D-galactose], the “affinity, times lower than lactose” value ([1]; relative to lactose) is given as 50-100 times.
In the case of `O=C(O)CO[C@@H]1[C@@H](n2cc(-c3cc(F)c(Cl)c(F)c3)nn2)[C@@H](O)[C@@H](CO)O[C@@H]1Sc1ccc(Cl)c(Cl)c1` [Example 7, 3,4-Dichlorphenyl 2-O-carboxymethyl-3-[4-(4-chloro-3,5-difluorophenyl)-1H-1,2,3-triazol-1-yl]-3-deoxy-1-thio-α-D-galactopyranoside], the Kd [2] is reported as 2 µM, the Kd [3] is reported as 0.0085 µM and the solubility [4] is reported as 2000 µg/mL (≈ 3.35 mM).
For `O=C(O)CO[C@@H]1[C@@H](n2cc(-c3cc(F)c(F)c(F)c3)nn2)[C@@H](O)[C@@H](CO)O[C@@H]1Sc1cncc(Br)c1` [Example 8, 5-Bromopyridin-3-yl 2-O-carboxymethyl-3-deoxy-3-[4-(3,4,5-trifluorophenyl)-1H-1,2,3-triazol-1-yl]-1-thio-α-D-galactopyranoside], the Kd [2] was 1.8 µM, the Kd [3] was 0.007 µM and the solubility [4] was 1800 µg/mL (≈ 3.04 mM).
In the case of `OC[C@H]1O[C@@H](O[C@H]2[C@H](O)[C@@H](O)C(O)O[C@@H]2CO)[C@H](O)[C@@H](O)[C@H]1O` (some centres unmarked) [lactose], the Kd ([1]; all galectins) is given as 500 to 1000 µM.
